# Experimental data: PMC9735679, “Identification and Evolution of a Natural Tetr Protein Based on Molecular Docking and Development of a Fluorescence Polari-Zation Assay for Multi-Detection of 10 Tetracyclines in Milk” (Foods, 2022)
# Like-named read-outs stand apart in the source and are kept apart here.
# Experiments:
# Type in all cases: binding
# natural TetR [1] = target: T1, natural TetR (Escherichia coli, UniProt P04483); assay: Surface plasmon resonance affinity, natural TetR; conditions: for Kd: KD (equilibrium dissociation constant, Kd/Ka); for Kd / koff (dissociation rate constant): SPR
# T1 construct: made in house
# Procedure: (§1) After the experiments, the association constant (Ka), the dissociation constant (Kd), and the equilibrium dissociation constant (KD = Kd/Ka) for each drug were calculated. For convenience in comparing their affinities, the absolute affinity constant (KA = […]) for each drug was also calculated.
# TetR mutant [2] = target: T2, TetR mutant (Escherichia coli, UniProt P04483, H139W); assay: Surface plasmon resonance affinity, TetR mutant; conditions: SPR; for Kd: KD (equilibrium dissociation constant, Kd/Ka)
# T2 construct: made in house; host or cells: E. coli Rosetta-gami(BL21), vector pET28a
# Procedure: as §1
# The primers were designed according to the virtual model: mutant for, […]; mutant rev, […]. The amplified gene was inserted into pET28a to construct the express vector that was transformed into E. coli Rosetta-gami(BL21) to express the mutant, and these procedures were according to our recent report. The obtained TetR mutant was characterized by using SDS-PAGE and western blotting according to our recent report, and its recognition ability for the 10 TCs was evaluated by the following FPA method. Furthermore, its recognition mechanisms and affinities for the 10 TCs were also determined as described above.
# natural TetR [3] = target: T1, natural TetR; assay: Fluorescence polarization assay (FPA) with natural TetR
# Procedure: (§2) The FPA method was performed as follows. A total of 50 μL mutant, 50 μL TCs solution, and 50 μL fluorescent tracer were added into the wells of a 96-well microplate (in triplicate) and incubated for 2 min. Then the fluorescence polarization (FP) value of each well was recorded (λex 485 nm, λem 528 nm, emission cutoff of 515 nm). During the experiments, the two fluorescent tracers were compared, and several other parameters were optimized, including tracer concentration, mutant concentration, Mg^2+ concentration and incubation time. The 10 TCs and several other classes of drugs were all tested by this method. The competitive curve was developed by plotting the FP/FP0 values (the fluorescence polarization value at each concentration divided by that of zero concentration) versus the concentrations of the TCs (log C). Based on the developed competitive curve, the half of inhibition (IC50) and the limit of detection (IC10) for each drug were determined, respectively.
# (§3) This is the first study reporting an FPA method for the determination of TCs. Under the optimal conditions, the 10 TCs were diluted with the extracts of a blank milk sample to be analyzed, respectively. […] During the experiments, the natural TetR was also used to perform the FPA method as described above.
# TetR mutant [4] = target: T2, TetR mutant; assay: Fluorescence polarization assay (FPA) with TetR mutant; conditions: for LOD (limit of detection, IC10) / inhibition ratio (1-FP/FP0): TetR mutant; for LOD (limit of detection, IC10): FPA, FA-MC tracer, drugs diluted with blank milk extract; for inhibition ratio (1-FP/FP0): 100 ng/mL
# Procedure: as §2
# For obtaining the best method performance, several parameters were optimized with DMC as the representative. Firstly, the concentrations of FA-MC and the mutant were optimized. During the experiments, the FA-MC and the mutant at different concentrations were mixed with the same concentration of DMC to perform the assay. […] Secondly, the concentration of Mg^2+ (MgCl2) was optimized. […] Thirdly, the competition time was optimized.
# as §3
# [5] = read-out: Ka (association constant), TetR without Mg2+, SPR
# [6] = read-out: Ka (association constant), TetR+Mg2+, SPR
smiles,measurement,setting,value
"CN(C)[C@@H]1C(O)=C(C(N)=O)C(=O)[C@@]2(O)C(O)=C3C(=O)c4c(O)ccc(Cl)c4[C@@](C)(O)[C@H]3C[C@@H]12 [CTC, chlortetracycline]",Kd,natural TetR [1]; TetR without Mg2+,4990 nM
same,Kd,natural TetR [1]; TetR+Mg2+,2560 nM
same,koff (dissociation rate constant),natural TetR [1]; TetR without Mg2+,0.0148 s⁻¹
same,koff (dissociation rate constant),natural TetR [1]; TetR+Mg2+,0.0113 s⁻¹
same,kon,natural TetR [1]; [5],2970 M⁻¹ s⁻¹
same,kon,natural TetR [1]; [6],4430 M⁻¹ s⁻¹
same,Kd,TetR mutant [2]; TetR mutant without Mg2+,16.3 nM
same,Kd,TetR mutant [2]; TetR mutant+Mg2+,9.11 nM
same,Dissociation rate constant (koff),TetR mutant [2]; TetR mutant without Mg2+,0.000822 s⁻¹
same,Dissociation rate constant (koff),TetR mutant [2]; TetR mutant+Mg2+,0.000404 s⁻¹
same,IC50,natural TetR [3],167 nM
same,IC50,TetR mutant [4],115 nM
same,"LOD (limit of detection, IC10)",TetR mutant [4],1.4 ng/mL
"C[C@H]1c2cccc(O)c2C(=O)C2=C(O)[C@]3(O)C(=O)C(C(N)=O)=C(O)[C@@H](N(C)C)[C@@H]3[C@@H](O)[C@@H]21 [DC, doxycycline]",Kd,natural TetR [1]; TetR without Mg2+,21.1 nM
same,Kd,natural TetR [1]; TetR+Mg2+,41.1 nM
same,koff (dissociation rate constant),natural TetR [1]; TetR without Mg2+,0.00113 s⁻¹
same,koff (dissociation rate constant),natural TetR [1]; TetR+Mg2+,0.0018 s⁻¹
same,kon,natural TetR [1]; [5],53400 M⁻¹ s⁻¹
same,kon,natural TetR [1]; [6],43900 M⁻¹ s⁻¹
same,Kd,TetR mutant [2]; TetR mutant without Mg2+,0.249 nM
same,Kd,TetR mutant [2]; TetR mutant+Mg2+,0.641 nM
same,Dissociation rate constant (koff),TetR mutant [2]; TetR mutant without Mg2+,6.65e-05 s⁻¹
same,Dissociation rate constant (koff),TetR mutant [2]; TetR mutant+Mg2+,0.000113 s⁻¹
same,IC50,natural TetR [3],82.4 nM
same,IC50,TetR mutant [4],68.2 nM
same,"LOD (limit of detection, IC10)",TetR mutant [4],1.0 ng/mL
"CN(C)[C@@H]1C(O)=C(C(N)=O)C(=O)[C@@]2(O)C(O)=C3C(=O)c4c(O)ccc(Cl)c4[C@@H](O)[C@H]3C[C@@H]12 [DMC, demeclocycline]",Kd,natural TetR [1]; TetR without Mg2+,74.4 nM
same,Kd,natural TetR [1]; TetR+Mg2+,27.6 nM
same,koff (dissociation rate constant),natural TetR [1]; TetR without Mg2+,0.000206 s⁻¹
same,koff (dissociation rate constant),natural TetR [1]; TetR+Mg2+,0.000127 s⁻¹
same,kon,natural TetR [1]; [5],2770 M⁻¹ s⁻¹
same,kon,natural TetR [1]; [6],4610 M⁻¹ s⁻¹
same,Kd,TetR mutant [2]; TetR mutant without Mg2+,3.1 nM
same,Kd,TetR mutant [2]; TetR mutant+Mg2+,0.0928 nM
same,Dissociation rate constant (koff),TetR mutant [2]; TetR mutant without Mg2+,1.72e-05 s⁻¹
same,Dissociation rate constant (koff),TetR mutant [2]; TetR mutant+Mg2+,4.7e-06 s⁻¹
same,IC50,natural TetR [3],66.7 nM
same,IC50,TetR mutant [4],33.3 nM
same,inhibition ratio (1-FP/FP0),TetR mutant [4]; tracer FA-MC,69%
same,inhibition ratio (1-FP/FP0),TetR mutant [4]; tracer FITC-MC,52%
same,"LOD (limit of detection, IC10)",TetR mutant [4],0.4 ng/mL
"CN(C)[C@@H]1C(O)=C(C(=O)NCNCCCC[C@H](N)C(=O)O)C(=O)[C@@]2(O)C(O)=C3C(=O)c4c(O)cccc4[C@@](C)(O)[C@H]3C[C@@H]12 [LMC, Lymecycline]",Kd,natural TetR [1]; TetR without Mg2+,366 nM
same,Kd,natural TetR [1]; TetR+Mg2+,263 nM
same,koff (dissociation rate constant),natural TetR [1]; TetR without Mg2+,0.00116 s⁻¹
same,koff (dissociation rate constant),natural TetR [1]; TetR+Mg2+,0.00121 s⁻¹
same,kon,natural TetR [1]; [5],3170 M⁻¹ s⁻¹
same,kon,natural TetR [1]; [6],4590 M⁻¹ s⁻¹
same,Kd,TetR mutant [2]; TetR mutant without Mg2+,2.54 nM
same,Kd,TetR mutant [2]; TetR mutant+Mg2+,1.09 nM
same,Dissociation rate constant (koff),TetR mutant [2]; TetR mutant without Mg2+,7.25e-05 s⁻¹
same,Dissociation rate constant (koff),TetR mutant [2]; TetR mutant+Mg2+,0.00011 s⁻¹
same,IC50,natural TetR [3],92.3 nM
same,IC50,TetR mutant [4],75.8 nM
same,"LOD (limit of detection, IC10)",TetR mutant [4],1.0 ng/mL
"CN(C)c1ccc(O)c2c1C[C@H]1C[C@H]3[C@H](N(C)C)C(O)=C(C(N)=O)C(=O)[C@@]3(O)C(O)=C1C2=O [MC, minocycline]",Kd,natural TetR [1]; TetR without Mg2+,112 nM
same,Kd,natural TetR [1]; TetR+Mg2+,70.3 nM
same,koff (dissociation rate constant),natural TetR [1]; TetR without Mg2+,0.000507 s⁻¹
same,koff (dissociation rate constant),natural TetR [1]; TetR+Mg2+,0.000511 s⁻¹
same,kon,natural TetR [1]; [5],4540 M⁻¹ s⁻¹
same,kon,natural TetR [1]; [6],7270 M⁻¹ s⁻¹
same,Kd,TetR mutant [2]; TetR mutant without Mg2+,3.1 nM
same,Kd,TetR mutant [2]; TetR mutant+Mg2+,0.191 nM
same,Dissociation rate constant (koff),TetR mutant [2]; TetR mutant without Mg2+,4.23e-05 s⁻¹
same,Dissociation rate constant (koff),TetR mutant [2]; TetR mutant+Mg2+,3.19e-05 s⁻¹
same,IC50,natural TetR [3],94.9 nM
same,IC50,TetR mutant [4],52 nM
same,"LOD (limit of detection, IC10)",TetR mutant [4],0.5 ng/mL
"C=C1c2cccc(O)c2C(=O)C2=C(O)[C@]3(O)C(=O)C(C(N)=O)=C(O)[C@@H](N(C)C)[C@@H]3[C@@H](O)[C@H]12 [MTC, Methacycline]",Kd,natural TetR [1]; TetR without Mg2+,111 nM
same,Kd,natural TetR [1]; TetR+Mg2+,122 nM
same,koff (dissociation rate constant),natural TetR [1]; TetR without Mg2+,0.00016 s⁻¹
same,koff (dissociation rate constant),natural TetR [1]; TetR+Mg2+,0.000162 s⁻¹
same,kon,natural TetR [1]; [5],1440 M⁻¹ s⁻¹
same,kon,natural TetR [1]; [6],1330 M⁻¹ s⁻¹
same,Kd,TetR mutant [2]; TetR mutant without Mg2+,3.97 nM
same,Kd,TetR mutant [2]; TetR mutant+Mg2+,0.3 nM
same,Dissociation rate constant (koff),TetR mutant [2]; TetR mutant without Mg2+,5.71e-06 s⁻¹
same,Dissociation rate constant (koff),TetR mutant [2]; TetR mutant+Mg2+,5.59e-06 s⁻¹
same,IC50,natural TetR [3],114 nM
same,IC50,TetR mutant [4],110 nM
same,"LOD (limit of detection, IC10)",TetR mutant [4],1.5 ng/mL
"CN(C)[C@@H]1C(O)=C(C(N)=O)C(=O)[C@@]2(O)C(O)=C3C(=O)c4c(O)cccc4[C@@](C)(O)[C@H]3[C@H](O)[C@@H]12 [OTC, oxytetracycline]",Kd,natural TetR [1]; TetR without Mg2+,965 nM
same,Kd,natural TetR [1]; TetR+Mg2+,409 nM
same,koff (dissociation rate constant),natural TetR [1]; TetR without Mg2+,0.00199 s⁻¹
same,koff (dissociation rate constant),natural TetR [1]; TetR+Mg2+,0.00144 s⁻¹
same,kon,natural TetR [1]; [5],2060 M⁻¹ s⁻¹
same,kon,natural TetR [1]; [6],3520 M⁻¹ s⁻¹
same,Kd,TetR mutant [2]; TetR mutant without Mg2+,1.76 nM
same,Kd,TetR mutant [2]; TetR mutant+Mg2+,1.48 nM
same,Dissociation rate constant (koff),TetR mutant [2]; TetR mutant without Mg2+,7.96e-05 s⁻¹
same,Dissociation rate constant (koff),TetR mutant [2]; TetR mutant+Mg2+,0.00012 s⁻¹
same,IC50,natural TetR [3],130 nM
same,IC50,TetR mutant [4],78.2 nM
same,"LOD (limit of detection, IC10)",TetR mutant [4],0.8 ng/mL
